Source: PubChem BioAssay (NCI)
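Each compound was tested at five concentrations against cells in 96-well plates for 48 hours. The concentration for full growth arrest is given as TGI.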

What was measured:
Assay in all cases: NCI-60 cell line screen, 48 h
786-0 renal = tested on: 786-0 renal
A498 renal = tested on: A498 renal
A549 NSCLC = tested on: A549 NSCLC
ACHN renal = tested on: ACHN renal
BT-549 breast = tested on: BT-549 breast
CAKI-1 renal = tested on: CAKI-1 renal
CCRF-CEM leukemia = tested on: CCRF-CEM leukemia
COLO 205 colon = tested on: COLO 205 colon
DU-145 prostate = tested on: DU-145 prostate
EKVX NSCLC = tested on: EKVX NSCLC
HCC-2998 colon = tested on: HCC-2998 colon
HCT-116 colon = tested on: HCT-116 colon
HCT-15 colon = tested on: HCT-15 colon
HL-60(TB) leukemia = tested on: HL-60(TB) leukemia
HOP-62 NSCLC = tested on: HOP-62 NSCLC
HOP-92 NSCLC = tested on: HOP-92 NSCLC
HS 578T breast = tested on: HS 578T breast
HT29 colon = tested on: HT29 colon
IGROV1 ovarian = tested on: IGROV1 ovarian
K-562 leukemia = tested on: K-562 leukemia
KM12 colon = tested on: KM12 colon
LOX IMVI melanoma = tested on: LOX IMVI melanoma
M14 melanoma = tested on: M14 melanoma
MALME-3M melanoma = tested on: MALME-3M melanoma
MCF7 breast = tested on: MCF7 breast
MDA-MB-231 breast = tested on: MDA-MB-231 breast
MDA-MB-435 = tested on: MDA-MB-435
MDA-N = tested on: MDA-N
MOLT-4 leukemia = tested on: MOLT-4 leukemia
NCI-H226 lung = tested on: NCI-H226 lung
NCI-H23 lung = tested on: NCI-H23 lung
NCI-H460 lung = tested on: NCI-H460 lung
NCI-H522 lung = tested on: NCI-H522 lung
NCI/ADR-RES ovarian = tested on: NCI/ADR-RES ovarian
OVCAR-3 ovarian = tested on: OVCAR-3 ovarian
OVCAR-4 ovarian = tested on: OVCAR-4 ovarian
OVCAR-5 ovarian = tested on: OVCAR-5 ovarian
OVCAR-8 ovarian = tested on: OVCAR-8 ovarian
PC-3 prostate = tested on: PC-3 prostate
RPMI-8226 leukemia = tested on: RPMI-8226 leukemia
RXF 393 renal = tested on: RXF 393 renal
SF-268 CNS = tested on: SF-268 CNS
SF-295 CNS = tested on: SF-295 CNS
SF-539 CNS = tested on: SF-539 CNS
SK-MEL-2 melanoma = tested on: SK-MEL-2 melanoma
SK-MEL-28 melanoma = tested on: SK-MEL-28 melanoma
SK-MEL-5 melanoma = tested on: SK-MEL-5 melanoma
SK-OV-3 ovarian = tested on: SK-OV-3 ovarian
SN12C renal = tested on: SN12C renal
SNB-19 CNS = tested on: SNB-19 CNS
SNB-75 CNS = tested on: SNB-75 CNS
SR leukemia = tested on: SR leukemia
SW-620 colon = tested on: SW-620 colon
T-47D breast = tested on: T-47D breast
TK-10 renal = tested on: TK-10 renal
U251 CNS = tested on: U251 CNS
UACC-257 melanoma = tested on: UACC-257 melanoma
UACC-62 melanoma = tested on: UACC-62 melanoma
UO-31 renal = tested on: UO-31 renal

Work on `Cn1c(CC(O)c2nc3ccccc3n2C)nc2ccccc21` (configuration not stated) yielded a TGI (786-0 renal) of over 68.6 µM, a TGI (A498 renal) of over 51.1 µM and a TGI (A549 NSCLC) of over 100 µM. The TGI (ACHN renal) was over 33.9 µM, the TGI (BT-549 breast) was over 63.2 µM and the TGI (CAKI-1 renal) was over 100 µM. The TGI (CCRF-CEM leukemia) was 17.3 µM, the TGI (COLO 205 colon) was over 35.8 µM and the TGI (DU-145 prostate) was over 21.7 µM. It also gave a TGI (EKVX NSCLC) of over 100 µM, a TGI (HCC-2998 colon) of over 100 µM and a TGI (HCT-116 colon) of over 34.9 µM. It also gave a TGI (HCT-15 colon) of over 49.5 µM, a TGI (HL-60(TB) leukemia) of 4.13 µM and a TGI (HOP-62 NSCLC) of over 19.1 µM. The TGI (HOP-92 NSCLC) was over 38.7 µM, the TGI (HS 578T breast) was over 24.2 µM and the TGI (HT29 colon) was over 54.3 µM. For the same compound, the TGI (IGROV1 ovarian) was over 40.6 µM, the TGI (K-562 leukemia) was over 47.9 µM and the TGI (KM12 colon) was over 100 µM. It also gave a TGI (LOX IMVI melanoma) of over 47.7 µM, a TGI (M14 melanoma) of over 49.8 µM and a TGI (MALME-3M melanoma) of over 35.5 µM. For the same compound, the TGI (MCF7 breast) was over 47.2 µM, the TGI (MDA-MB-231 breast) was over 53.7 µM and the TGI (MDA-MB-435) was over 44.4 µM. For the same compound, the TGI (MDA-N) was over 100 µM, the TGI (MOLT-4 leukemia) was over 27.9 µM and the TGI (NCI-H226 lung) was over 72.3 µM. The TGI (NCI-H23 lung) was over 48.6 µM, the TGI (NCI-H460 lung) was over 46.9 µM and the TGI (NCI-H522 lung) was over 8.21 µM. For the same compound, the TGI (NCI/ADR-RES ovarian) was over 67.9 µM, the TGI (OVCAR-3 ovarian) was over 19.4 µM and the TGI (OVCAR-4 ovarian) was over 30.1 µM. It also gave a TGI (OVCAR-5 ovarian) of over 74.3 µM, a TGI (OVCAR-8 ovarian) of over 47.8 µM and a TGI (PC-3 prostate) of over 58.8 µM. For the same compound, the TGI (RPMI-8226 leukemia) was over 19.1 µM, the TGI (RXF 393 renal) was over 39.4 µM and the TGI (SF-268 CNS) was over 28.9 µM. The TGI (SF-295 CNS) was over 100 µM, the TGI (SF-539 CNS) was over 56 µM and the TGI (SK-MEL-2 melanoma) was over 58.5 µM. For the same compound, the TGI (SK-MEL-28 melanoma) was over 60.9 µM, the TGI (SK-MEL-5 melanoma) was over 42.8 µM and the TGI (SK-OV-3 ovarian) was over 45.2 µM. For the same compound, the TGI (SN12C renal) was over 57.9 µM, the TGI (SNB-19 CNS) was over 87.7 µM and the TGI (SNB-75 CNS) was over 100 µM. For the same compound, the TGI (SR leukemia) was over 100 µM, the TGI (SW-620 colon) was over 47 µM and the TGI (T-47D breast) was over 16.7 µM. The TGI (TK-10 renal) was over 36.4 µM, the TGI (U251 CNS) was over 48.8 µM and the TGI (UACC-257 melanoma) was over 47.8 µM. The TGI (UACC-62 melanoma) was over 61.5 µM and the TGI (UO-31 renal) was over 9.39 µM.

For `C=C1C(=O)O[C@@H]2[C@H]1C[C@H](I)[C@@]1(C)CC[C@H](O1)[C@](C)(I)CCCC(C)[C@@H]2O` (some centres not stated), the TGI (786-0 renal) was 2.84 µM, the TGI (A498 renal) was 28.1 µM and the TGI (A549 NSCLC) was 26.9 µM. The TGI (ACHN renal) was 3.71 µM, the TGI (BT-549 breast) was 20.9 µM and the TGI (CAKI-1 renal) was 4.19 µM. The TGI (CCRF-CEM leukemia) was 1.59 µM, the TGI (COLO 205 colon) was 4.95 µM and the TGI (DU-145 prostate) was 13.6 µM. The TGI (EKVX NSCLC) was 22.9 µM, the TGI (HCC-2998 colon) was 25.2 µM and the TGI (HCT-116 colon) was 8.34 µM. The TGI (HCT-15 colon) was 4.57 µM, the TGI (HL-60(TB) leukemia) was 4.54 µM and the TGI (HOP-62 NSCLC) was 35.2 µM. It also gave a TGI (HOP-92 NSCLC) of 3.52 µM, a TGI (HS 578T breast) of 40.1 µM and a TGI (HT29 colon) of 4.61 µM. For the same compound, the TGI (IGROV1 ovarian) was 5.68 µM, the TGI (K-562 leukemia) was over 42.1 µM and the TGI (KM12 colon) was 23.7 µM. For the same compound, the TGI (LOX IMVI melanoma) was 2.59 µM, the TGI (M14 melanoma) was 19.4 µM and the TGI (MALME-3M melanoma) was 7.33 µM. It also gave a TGI (MCF7 breast) of 7.29 µM, a TGI (MDA-MB-231 breast) of 16.3 µM and a TGI (MDA-MB-435) of 11.6 µM. It also gave a TGI (MDA-N) of 9.57 µM, a TGI (MOLT-4 leukemia) of over 23.4 µM and a TGI (NCI-H226 lung) of 3.85 µM. For the same compound, the TGI (NCI-H23 lung) was 20.5 µM, the TGI (NCI-H460 lung) was 28.6 µM and the TGI (NCI-H522 lung) was 1.59 µM. For the same compound, the TGI (NCI/ADR-RES ovarian) was 9.84 µM, the TGI (OVCAR-3 ovarian) was 8.09 µM and the TGI (OVCAR-4 ovarian) was 17.6 µM. It also gave a TGI (OVCAR-5 ovarian) of 26.5 µM, a TGI (OVCAR-8 ovarian) of 8.12 µM and a TGI (PC-3 prostate) of 24.6 µM. It also gave a TGI (RPMI-8226 leukemia) of 9.3 µM, a TGI (RXF 393 renal) of 4.44 µM and a TGI (SF-268 CNS) of 27.2 µM. For the same compound, the TGI (SF-295 CNS) was 31.8 µM, the TGI (SF-539 CNS) was 4.25 µM and the TGI (SK-MEL-2 melanoma) was 28.6 µM. It also gave a TGI (SK-MEL-28 melanoma) of 17.6 µM, a TGI (SK-MEL-5 melanoma) of over 35.8 µM and a TGI (SK-OV-3 ovarian) of 30.7 µM. The TGI (SN12C renal) was 17.7 µM, the TGI (SNB-19 CNS) was 30.5 µM and the TGI (SNB-75 CNS) was 21.3 µM. The TGI (SR leukemia) was 9.41 µM, the TGI (SW-620 colon) was 3.51 µM and the TGI (T-47D breast) was 12.7 µM. It also gave a TGI (TK-10 renal) of 3.57 µM, a TGI (U251 CNS) of 20 µM and a TGI (UACC-257 melanoma) of 20.1 µM. It also gave a TGI (UACC-62 melanoma) of 16.4 µM and a TGI (UO-31 renal) of 7.74 µM.

`Cc1cc(/N=C/c2ccc(Cl)cc2)n(-c2ccccc2)n1` was tested, and the TGI (786-0 renal) was over 100 µM, the TGI (A498 renal) was 79.7 µM and the TGI (A549 NSCLC) was over 100 µM. The TGI (ACHN renal) was over 100 µM, the TGI (BT-549 breast) was over 100 µM and the TGI (CAKI-1 renal) was over 100 µM. For the same compound, the TGI (CCRF-CEM leukemia) was over 100 µM, the TGI (COLO 205 colon) was over 100 µM and the TGI (DU-145 prostate) was over 100 µM. It also gave a TGI (EKVX NSCLC) of over 100 µM, a TGI (HCC-2998 colon) of 71 µM and a TGI (HCT-116 colon) of over 100 µM. For the same compound, the TGI (HCT-15 colon) was over 100 µM, the TGI (HL-60(TB) leukemia) was 91.5 µM and the TGI (HOP-62 NSCLC) was over 100 µM. It also gave a TGI (HOP-92 NSCLC) of over 100 µM, a TGI (HS 578T breast) of over 100 µM and a TGI (HT29 colon) of over 100 µM. For the same compound, the TGI (IGROV1 ovarian) was over 100 µM, the TGI (K-562 leukemia) was over 100 µM and the TGI (KM12 colon) was over 100 µM. It also gave a TGI (LOX IMVI melanoma) of over 100 µM, a TGI (M14 melanoma) of over 100 µM and a TGI (MALME-3M melanoma) of over 100 µM. The TGI (MCF7 breast) was over 100 µM, the TGI (MDA-MB-231 breast) was over 100 µM and the TGI (MDA-MB-435) was over 100 µM. For the same compound, the TGI (MDA-N) was over 100 µM, the TGI (MOLT-4 leukemia) was over 100 µM and the TGI (NCI-H226 lung) was over 100 µM. It also gave a TGI (NCI-H23 lung) of over 100 µM, a TGI (NCI-H460 lung) of over 100 µM and a TGI (NCI-H522 lung) of over 100 µM. For the same compound, the TGI (NCI/ADR-RES ovarian) was over 100 µM, the TGI (OVCAR-3 ovarian) was over 100 µM and the TGI (OVCAR-4 ovarian) was over 100 µM. The TGI (OVCAR-5 ovarian) was over 100 µM, the TGI (OVCAR-8 ovarian) was over 100 µM and the TGI (PC-3 prostate) was over 100 µM. It also gave a TGI (RPMI-8226 leukemia) of over 100 µM, a TGI (RXF 393 renal) of 77.1 µM and a TGI (SF-268 CNS) of over 100 µM. For the same compound, the TGI (SF-295 CNS) was over 100 µM, the TGI (SF-539 CNS) was over 100 µM and the TGI (SK-MEL-2 melanoma) was over 100 µM. For the same compound, the TGI (SK-MEL-28 melanoma) was over 100 µM, the TGI (SK-MEL-5 melanoma) was 68.8 µM and the TGI (SK-OV-3 ovarian) was over 100 µM. For the same compound, the TGI (SN12C renal) was over 100 µM, the TGI (SNB-19 CNS) was over 100 µM and the TGI (SNB-75 CNS) was over 100 µM. It also gave a TGI (SR leukemia) of over 100 µM, a TGI (SW-620 colon) of over 100 µM and a TGI (T-47D breast) of 79.4 µM. The TGI (TK-10 renal) was over 100 µM, the TGI (U251 CNS) was over 100 µM and the TGI (UACC-257 melanoma) was over 100 µM. For the same compound, the TGI (UACC-62 melanoma) was over 100 µM and the TGI (UO-31 renal) was over 100 µM.
